Data from patent US6737383B1, “Herbicidal oxadiazolidines” (priority 1999, dated 2004).

Key:
[1] = tested on: blackgrass; experiment: Test B pre/postemergence blackgrass; format: in vivo, Alopecurus myosuroides
Procedure, shortened: (§1)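 Test chemicals in a non-phytotoxic solvent mixture with surfactant were sprayed preemergence onto planted seeds and postemergence onto plants 2 to 18 cm tall (1- to 4-leaf stage). After twelve to sixteen days in a greenhouse, injury was visually rated against untreated controls from 0 (no effect) to 10 (complete control).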

[2] = tested on: surinam grass; experiment: Test B pre/postemergence surinam grass; format: in vivo, Brachiaria decumbens
Procedure, shortened: as §1

[3] = tested on: bedstraw; experiment: Test B pre/postemergence bedstraw; format: in vivo, Galium aparine
Procedure, shortened: as §1

[4] = tested on: bamyardgrass; experiment: Test B flood test barnyardgrass; format: in vivo, Echinochloa crus-galli
Procedure, shortened: (§2)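 Each value is a visual injury score relative to controls, with 10 meaning complete control and 0 no effect. Evaluation took place twelve to sixteen days after the 2-leaf-stage plants were treated and kept in the greenhouse.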

[5] = tested on: duck salad; experiment: Test B flood test duck salad; format: in vivo, Heteranthera limosa
Procedure, shortened: as §2

[6] = tested on: rice; experiment: Test B flood test rice; format: in vivo, Oryza sativa
Procedure, shortened: as §2

[7] = tested on: morningglory; experiment: Test B pre/postemergence morningglory; format: in vivo, Ipomoea hederacea
Procedure, shortened: as §1

[8] = tested on: pigweed; experiment: Test B pre/postemergence pigweed; format: in vivo, Amaranthus retroflexus; conditions: for Plant response rating, Redroot pigweed: Postemergence
Procedure, shortened: as §1

[9] = tested on: purple nutsedge; experiment: Test B pre/postemergence purple nutsedge; format: in vivo, Cyperus rotundus
Procedure, shortened: as §1

[10] = tested on: rape; experiment: Test B pre/postemergence rape; format: in vivo, Brassica napus
Procedure, shortened: as §1

[11] = tested on: cocklebur; experiment: Test B pre/postemergence cocklebur; format: in vivo, Xanthium strumarium
Procedure, shortened: as §1

[12] = tested on: wild oat; experiment: Test B pre/postemergence wild oat; format: in vivo, Avena fatua; conditions: for Plant response rating, Wild oats: Postemergence
Procedure, shortened: as §1

[13] = tested on: velvetleaf; experiment: Test B pre/postemergence velvetleaf; format: in vivo, Abutilon theophrasti; conditions: for Plant response rating, Velvetleaf: Postemergence
Procedure, shortened: as §1

[14] = tested on: wheat; experiment: Test B pre/postemergence wheat; format: in vivo, Triticum aestivum; conditions: for Plant response rating, Wheat: Postemergence
Procedure, shortened: as §1

[15] = tested on: corn; experiment: Test B pre/postemergence corn; format: in vivo, Zea mays
Procedure, shortened: as §1

[16] = tested on: smallflower flatsedge; experiment: Test B flood test smallflower flatsedge; format: in vivo, Cyperus difformis
Procedure, shortened: as §2

[17] = Postemergence, Rate 62 g/ha, scale of 0 to 10, 0 is no effect, 10 is complete control
[18] = Postemergence, Rate 125 g/ha, scale 0 to 10, 0 is no effect, 10 is complete control
[19] = Postemergence, Rate 500 g/ha, scale of 0 to 10 where 0 is no effect and 10 is complete control
[20] = Preemergence, Rate 62 g/ha, scale 0 to 10 (0 no effect, 10 complete control)
[21] = Preemergence, Rate 125 g/ha, scale 0 to 10, 0 is no effect, 10 is complete control
[22] = Preemergence, Rate 500 g/ha, scale of 0 to 10 where 0 is no effect and 10 is complete control
[23] = Rate 250 g/ha, Postemergence, scale of 0 to 10 where 0 is no effect and 10 is complete control
[24] = Rate 62 g/ha, flood test species, Pre-emergence, visual evaluation after twelve to sixteen days
[25] = Rate 125 g/ha, under heading Pre-emergence, flood test species, visual evaluation after twelve to sixteen days
[26] = Rate 250 g/ha, Pre-emergence (flood test species), scale 0 to 10, 0 is no effect, 10 is complete control
[27] = Rate 500 g/ha, Pre-emergence section of Table B, 0 to 10 scale (0 no effect, 10 complete control)
[28] = Rate 500 g/ha, scale of 0 to 10 where 0 is no effect and 10 is complete control
[29] = Rate 250 g/ha, scale of 0 to 10 where 0 is no effect and 10 is complete control

With `CC(C)N(C(=O)n1oc(=O)n(CCc2ccccc2)c1=O)c1ccccc1` [Compound 567] the “Blackgrass plant response rating” value [1, 17] was 0, the “Blackgrass plant response rating” value [1, 18] was 0 and the “Plant response rating, Blackgrass” value [1, 19] was 0. The “Blackgrass plant response rating” value [1, 20] was 0, the “Blackgrass plant response rating” value [1, 21] was 0 and the “Blackgrass plant response rating (0 to 10 scale)” value ([1]; Preemergence, Rate 250 g/ha) was 0. The “Blackgrass plant response rating” value [1, 22] was 7, the “Plant response rating, Blackgrass” value [1, 23] was 0 and the “B. signalgrass plant response rating” value [2, 17] was 0. The “B. signalgrass plant response rating” value [2, 18] was 0, the “Plant response rating, B. signalgrass” value [2, 19] was 0 and the “B. signalgrass plant response rating” value [2, 20] was 0. For the same compound, the “B. signalgrass plant response rating” value [2, 21] was 0, the “B. signalgrass plant response rating (0 to 10 scale, 0 is no effect, 10 is complete control)” value ([2]; Preemergence, Rate 250 g/ha) was 2 and the “B. signalgrass plant response rating” value [2, 22] was 9. The “Plant response rating, B. signalgrass” value [2, 23] was 0, the “Bedstraw plant response rating” value [3, 17] was 0 and the “Bedstraw plant response rating” value [3, 18] was 0. For the same compound, the “Plant response rating, Bedstraw” value [3, 19] was 0, the “Bedstraw plant response rating” value [3, 20] was 0 and the “Bedstraw plant response rating” value [3, 21] was 0. For the same compound, the “Bedstraw plant response rating (0 to 10 scale)” value ([3]; Preemergence, Rate 250 g/ha) was 0, the “Bedstraw plant response rating” value [3, 22] was 0 and the “Plant response rating, Bedstraw” value [3, 23] was 0. The “Plant response rating, Barnyardgrass (0 to 10 scale, 0 is no effect, 10 is complete control)” value [4, 24] was 0, the “Barnyardgrass plant response rating (0 to 10 scale, 0 is no effect, 10 is complete control)” value [4, 25] was 0 and the “Barnyardgrass plant response rating” value [4, 26] was 0. For the same compound, the “Barnyardgrass plant response rating” value [4, 27] was 0, the “Plant response rating, Ducksalad (0 to 10 scale, 0 is no effect, 10 is complete control)” value [5, 24] was 0 and the “Ducksalad plant response rating (0 to 10 scale, 0 is no effect, 10 is complete control)” value [5, 25] was 0. The “Ducksalad plant response rating” value [5, 26] was 0, the “Ducksalad plant response rating” value [5, 27] was 0 and the “Plant response rating, Rice (0 to 10 scale, 0 is no effect, 10 is complete control)” value [6, 24] was 0. For the same compound, the “Rice plant response rating (0 to 10 scale, 0 is no effect, 10 is complete control)” value [6, 25] was 0, the “Rice plant response rating” value [6, 26] was 0 and the “Rice plant response rating” value [6, 27] was 0. The “Morningglory plant response rating” value [7, 17] was 0, the “Morningglory plant response rating” value [7, 18] was 4 and the “Plant response rating, Morningglory” value [7, 19] was 10. For the same compound, the “Morningglory plant response rating” value [7, 20] was 0, the “Morningglory plant response rating” value [7, 21] was 0 and the “Morningglory plant response rating (0 to 10 scale)” value ([7]; Preemergence, Rate 250 g/ha) was 0. For the same compound, the “Morningglory plant response rating” value [7, 22] was 0, the “Plant response rating, Morningglory” value [7, 23] was 4 and the “Plant response rating, Redroot pigweed” value [8, 28] was 0. For the same compound, the “Redroot pigweed plant response rating” value [8, 20] was 0, the “Redroot pigweed plant response rating” value [8, 21] was 0 and the “Redroot pigweed plant response rating (0 to 10 scale)” value ([8]; Preemergence, Rate 250 g/ha) was 8. The “Redroot pigweed plant response rating” value [8, 22] was 9, the “Plant response rating, Redroot pigweed” value [8, 29] was 0 and the “Nutsedge plant response rating” value [9, 17] was 4. For the same compound, the “Plant response rating, Nutsedge” value [9, 19] was 0, the “Nutsedge plant response rating” value [9, 20] was 0 and the “Nutsedge plant response rating” value [9, 21] was 0. The “Nutsedge plant response rating (0 to 10 scale)” value ([9]; Preemergence, Rate 250 g/ha) was 0, the “Nutsedge plant response rating” value [9, 22] was 0 and the “Rape plant response rating” value [10, 17] was 0. The “Rape plant response rating” value [10, 18] was 0, the “Plant response rating, Rape” value [10, 19] was 0 and the “Rape plant response rating” value [10, 20] was 0. The “Rape plant response rating” value [10, 21] was 0, the “Rape plant response rating (0 to 10 scale)” value ([10]; Preemergence, Rate 250 g/ha) was 0 and the “Rape plant response rating” value [10, 22] was 0. The “Plant response rating, Rape” value [10, 23] was 0, the “Cocklebur plant response rating” value [11, 17] was 0 and the “Cocklebur plant response rating” value [11, 18] was 0. For the same compound, the “Plant response rating, Cocklebur” value [11, 19] was 2, the “Cocklebur plant response rating” value [11, 20] was 0 and the “Cocklebur plant response rating” value [11, 21] was 0. The “Cocklebur plant response rating (0 to 10 scale)” value ([11]; Preemergence, Rate 250 g/ha) was 0, the “Cocklebur plant response rating” value [11, 22] was 0 and the “Plant response rating, Cocklebur” value [11, 23] was 0. For the same compound, the “Plant response rating, Wild oats” value [12, 28] was 0, the “Wild oats plant response rating” value [12, 20] was 0 and the “Wild oats plant response rating” value [12, 21] was 0. For the same compound, the “Wild oats plant response rating (0 to 10 scale)” value ([12]; Preemergence, Rate 250 g/ha) was 0, the “Wild oats plant response rating” value [12, 22] was 0 and the “Plant response rating, Wild oats” value [12, 29] was 0. The “Plant response rating, Velvetleaf” value [13, 28] was 2, the “Velvetleaf plant response rating” value [13, 20] was 0 and the “Velvetleaf plant response rating” value [13, 21] was 0. The “Velvetleaf plant response rating (0 to 10 scale)” value ([13]; Preemergence, Rate 250 g/ha) was 0, the “Velvetleaf plant response rating” value [13, 22] was 0 and the “Plant response rating, Velvetleaf” value [13, 29] was 0. The “Plant response rating, Wheat” value [14, 28] was 0, the “Wheat plant response rating” value [14, 20] was 0 and the “Wheat plant response rating” value [14, 21] was 0. For the same compound, the “Wheat plant response rating (0 to 10 scale)” value ([14]; Preemergence, Rate 250 g/ha) was 0, the “Wheat plant response rating” value [14, 22] was 0 and the “Plant response rating, Wheat” value [14, 29] was 0. For the same compound, the “Corn plant response rating” value [15, 17] was 0, the “Corn plant response rating” value [15, 18] was 0 and the “Plant response rating, Corn” value [15, 19] was 0. The “Corn plant response rating” value [15, 20] was 0, the “Corn plant response rating” value [15, 21] was 0 and the “Corn plant response rating (0 to 10 scale)” value ([15]; Preemergence, Rate 250 g/ha) was 0. For the same compound, the “Corn plant response rating” value [15, 22] was 5, the “Plant response rating, Corn” value [15, 23] was 0 and the “Plant response rating, S. Flatsedge (0 to 10 scale, 0 is no effect, 10 is complete control)” value [16, 24] was 0. For the same compound, the “S. Flatsedge plant response rating (0 to 10 scale, 0 is no effect, 10 is complete control)” value [16, 25] was 0, the “S. Flatsedge plant response rating” value [16, 26] was 0 and the “S. Flatsedge plant response rating” value [16, 27] was 0.
